From patent US9353082B2, “Pharmaceutical compounds” (BIAL—PORTELA & CA, S.A., priority 2008, dated 2016)

Columns and labels:
FAAH [1] = molecular target: T1, FAAH (Mus musculus, UniProt O08914); assay: In vivo FAAH inhibition after oral dosing, remaining activity in brain homogenate (BRh, central nervous tissue); parameters: species or system NMRI mice; conditions: brain homogenate; for In Vivo BRh 3 mg·kg 8 h (remaining FAAH activity, % of control): 8 h after dosing, low value = strong inhibitor
T1 construct: A fragment of liver, left lung lobe and brain without cerebellum were removed; from tissue; host or cells: male NMRI mice; brain (without cerebellum) and liver homogenates
T1 sequence (O08914 1-579): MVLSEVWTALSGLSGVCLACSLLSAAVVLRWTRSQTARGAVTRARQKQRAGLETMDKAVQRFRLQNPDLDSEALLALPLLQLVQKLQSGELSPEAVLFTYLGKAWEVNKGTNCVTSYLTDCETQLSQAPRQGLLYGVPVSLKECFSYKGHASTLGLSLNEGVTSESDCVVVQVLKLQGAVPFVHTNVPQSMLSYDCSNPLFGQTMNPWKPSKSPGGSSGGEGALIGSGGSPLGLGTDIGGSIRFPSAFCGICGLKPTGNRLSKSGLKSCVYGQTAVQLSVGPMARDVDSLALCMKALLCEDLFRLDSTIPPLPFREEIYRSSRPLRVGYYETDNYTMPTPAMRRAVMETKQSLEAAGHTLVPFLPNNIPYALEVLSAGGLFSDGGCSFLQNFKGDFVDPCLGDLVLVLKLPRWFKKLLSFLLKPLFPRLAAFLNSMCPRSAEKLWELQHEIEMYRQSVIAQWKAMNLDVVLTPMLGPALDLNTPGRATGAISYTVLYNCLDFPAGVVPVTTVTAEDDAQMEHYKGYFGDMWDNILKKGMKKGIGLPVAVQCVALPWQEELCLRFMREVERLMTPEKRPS
Method in brief: (§1)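 Remaining FAAH activity is given as % of vehicle-treated controls after blank subtraction, measured by radiolabelled AEA hydrolysis (2 μM AEA, 5 nM 3H-AEA, 37 °C) in brain (10 min) or liver (7 min) homogenates. These came from fasted male NMRI mice dosed orally at 30 or 3 mg/kg.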

FAAH [2] = molecular target: T2, FAAH (Rattus norvegicus, UniProt P97612); assay: In vitro FAAH activity in rat brain membranes, 3H-AEA substrate, % of control; format: biochemical, Wistar rats; conditions: low value = strong inhibitor; for In Vitro FAAH activity, 100 nM: 100 nM test compound; for In Vitro 100 nM (FAAH activity, % of control): rat brain membranes, compound at 100 nM; for In Vitro FAAH activity, 10 uM: 10 uM test compound
T2 construct: Frozen brains (without cerebellum) from Wistar rats were used; from tissue; host or cells: Wistar rat brain (without cerebellum), washed membrane pellets
T2 sequence (P97612 1-579): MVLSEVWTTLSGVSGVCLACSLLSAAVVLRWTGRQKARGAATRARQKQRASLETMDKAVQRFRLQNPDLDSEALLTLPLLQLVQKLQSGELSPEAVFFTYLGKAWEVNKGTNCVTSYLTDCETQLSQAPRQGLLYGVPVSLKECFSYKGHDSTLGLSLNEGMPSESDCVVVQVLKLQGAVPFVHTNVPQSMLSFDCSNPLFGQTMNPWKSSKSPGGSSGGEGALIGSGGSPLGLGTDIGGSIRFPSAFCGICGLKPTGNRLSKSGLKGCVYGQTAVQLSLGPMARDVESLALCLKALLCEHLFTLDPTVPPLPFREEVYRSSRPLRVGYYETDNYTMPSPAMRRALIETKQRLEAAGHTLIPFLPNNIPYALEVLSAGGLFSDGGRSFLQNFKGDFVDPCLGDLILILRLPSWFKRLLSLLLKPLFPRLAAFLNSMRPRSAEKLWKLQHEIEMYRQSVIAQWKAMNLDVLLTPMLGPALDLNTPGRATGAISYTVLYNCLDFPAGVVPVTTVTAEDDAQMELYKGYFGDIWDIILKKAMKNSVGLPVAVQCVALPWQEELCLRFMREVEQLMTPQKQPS
Method in brief: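 FAAH activity measured as 3H-ethanolamine released from 2 μM [3H]AEA over 10 min by rat brain membrane preparation, after 15 min 37 °C preincubation with test compound at 10 or 0.1 μM. Charcoal-separated supernatant scintillation-counted; values expressed as % of control minus no-protein blank.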

FAAH [3] = molecular target: T1, FAAH; assay: In vivo FAAH inhibition after oral dosing, remaining activity in liver homogenate (LVh, peripheral tissue); parameters: species or system NMRI mice; conditions: liver homogenate; for In Vivo LVh 3 mg·kg 8 h (remaining FAAH activity, % of control): 8 h after dosing, low value = strong inhibitor
Method in brief: as §1

Row | Structure (SMILES) | In Vivo BRh 3 mg/kg 8 h, remaining FAAH activity (FAAH [1]) | In Vitro FAAH activity, 100 nM (FAAH [2]) | In Vivo LVh 3 mg/kg 8 h, remaining FAAH activity (FAAH [3]) | further results
1 | CN(Cc1ccccc1)C(=O)n1cnc(-c2ccc(Oc3ccc(C(N)=O)cc3)cc2)n1 [Compound 151, N-benzyl-3-(4-(4-carbamoylphenoxy)phenyl)-N-methyl-1H-1,2,4-triazole-1-carboxamide] | 116.7 % of control | 0.4 % of control | 65.8 % of control | –
2 | COc1ccc(-c2cn(C(=O)N(C)C3CCCCC3)cn2)cc1F [Compound 314, N-cyclohexyl-4-(3-fluoro-4-methoxyphenyl)-N-methyl-1H-imidazole-1-carboxamide] | – | – | – | In Vivo BRh 3 mg·kg 8 h (remaining FAAH activity, % of control) (FAAH [1]): 84.3 % of control; In Vitro 100 nM (FAAH activity, % of control) (FAAH [2]): 84.3 % of control; In Vivo LVh 3 mg·kg 8 h (remaining FAAH activity, % of control) (FAAH [3]): 48 % of control
3 | CN(Cc1ccccc1)C(=O)n1cnc(-c2ccc(F)cc2)c1 [Compound 150, N-benzyl-4-(4-fluorophenyl)-N-methyl-1H-imidazole-1-carboxamide] | 5.6 % of control | 1.2 % of control | 3.8 % of control | –
4 | O=C(N1CCN(c2ccccc2)CC1)n1cnc(-c2cccs2)n1 [Compound 155, (4-phenylpiperazin-1-yl)(3-(thiophen-2-yl)-1H-1,2,4-triazol-1-yl)methanone] | 144.1 % of control | 0.4 % of control | 108.2 % of control | –
5 | Cc1nc(-c2ccccc2)nn1C(=O)N1COCC1(C)C [Compound 286, (4,4-dimethyloxazolidin-3-yl)(5-methyl-3-phenyl-1H-1,2,4-triazol-1-yl)methanone] | – | – | – | In Vivo BRh 3 mg·kg 8 h (remaining FAAH activity, % of control) (FAAH [1]): 104 % of control; In Vitro 100 nM (FAAH activity, % of control) (FAAH [2]): 112.8 % of control; In Vivo LVh 3 mg·kg 8 h (remaining FAAH activity, % of control) (FAAH [3]): 93 % of control
6 | O=C(N1CCC(OCCCc2ccccc2)CC1)n1nnc2ccccc21 [Compound 135, (1H-benzo[d][1,2,3]triazol-1-yl)(4-(3-phenylpropoxy)piperidin-1-yl)methanone] | 26.5 % of control | 0.1 % of control | 30.1 % of control | –
7 | CN(C(=O)n1cnc(-c2ccccc2)c1)c1ccccc1 [Compound 4, N-methyl-N,4-diphenyl-1H-imidazole-1-carboxamide] | – | 83.6 % of control | – | In Vivo BRh 30 mg/kg 1 h, remaining FAAH activity (FAAH [1]): 14.3 % of control; In Vitro FAAH activity, 10 uM (FAAH [2]): 0.1 % of control; In Vivo LVh 30 mg/kg 1 h, remaining FAAH activity (FAAH [3]): 10.6 % of control
8 | NC(=O)c1ccc(Oc2cccc(-c3ncn(C(=O)N4CCN(c5ccccc5)CC4)n3)c2)cc1 [Compound 208, 4-(3-(1-(4-phenylpiperazine-1-carbonyl)-1H-1,2,4-triazol-3-yl)phenoxy)benzamide] | 97.2 % of control | 0.2 % of control | 96.7 % of control | –
9 | O=C(N1CCC(c2nc(-c3cccnc3)no2)CC1)n1nnc2ccccc21 [Compound 116, (1H-benzo[d][1,2,3]triazol-1-yl)(4-(3-(pyridin-3-yl)-1,2,4-oxadiazol-5-yl)piperidin-1-yl)methanone] | 126.2 % of control | 0.5 % of control | 113.2 % of control | –
10 | Cl.O=C(N1CCN(Cc2ccccc2)CC1)n1cnc(-c2cccs2)n1 [Compound 158, (4-benzylpiperazin-1-yl)(3-(thiophen-2-yl)-1H-1,2,4-triazol-1-yl)methanone hydrochloride] | 92 % of control | 0.3 % of control | 85.6 % of control | –
11 | O=C(N1CCC(Cc2ccccc2)CC1)n1nnc2ccccc21 [Compound 42, (1H-benzo[d][1,2,3]triazol-1-yl)(4-benzylpiperidin-1-yl)methanone] | – | 0 % of control | – | In Vivo BRh 30 mg/kg 1 h, remaining FAAH activity (FAAH [1]): 8.4 % of control; In Vitro FAAH activity, 10 uM (FAAH [2]): 0 % of control; In Vivo LVh 30 mg/kg 1 h, remaining FAAH activity (FAAH [3]): 6.4 % of control
12 | CN(C(=O)n1cnc(-c2ccc(OC(F)F)cc2)c1)C1CCCCC1 [Compound 276, N-cyclohexyl-4-(4-(difluoromethoxy)phenyl)-N-methyl-1H-imidazole-1-carboxamide] | – | – | – | In Vivo BRh 3 mg·kg 8 h (remaining FAAH activity, % of control) (FAAH [1]): 1.4 % of control; In Vitro 100 nM (FAAH activity, % of control) (FAAH [2]): 71.5 % of control; In Vivo LVh 3 mg·kg 8 h (remaining FAAH activity, % of control) (FAAH [3]): 2 % of control
13 | NC(=O)c1ccc(Oc2ccc(-c3ncn(C(=O)N4CCOCC4)n3)cc2)cc1 [Compound 147, 4-(4-(1-(morpholine-4-carbonyl)-1H-1,2,4-triazol-3-yl)phenoxy)benzamide] | 124.4 % of control | 55.1 % of control | 103 % of control | –
14 | CC1(C)COCN1C(=O)n1nnc2ccc(-c3cccc(C(N)=O)c3)cc21 [Compound 163, 3-(3-(4,4-dimethyloxazolidine-3-carbonyl)-3H-benzo[d][1,2,3]triazol-5-yl)benzamide] | 6.3 % of control | 0.6 % of control | 2.4 % of control | –

Further lines, with some results ahead:

Row | In Vivo BRh 3 mg/kg 8 h, remaining FAAH activity (FAAH [1]) | In Vitro FAAH activity, 100 nM (FAAH [2]) | In Vivo LVh 3 mg/kg 8 h, remaining FAAH activity (FAAH [3]) | Structure (SMILES) | further results
15 | 3.9 % of control | 54.2 % of control | 3.6 % of control | CC1(C)COCN1C(=O)n1cnc(-c2cccc(-c3ccccc3)c2)c1 [Compound 231, (4-(biphenyl-3-yl)-1H-imidazol-1-yl)(4,4-dimethyloxazolidin-3-yl)methanone] | –
16 | 67.7 % of control | 75.4 % of control | 37.7 % of control | COc1cccc(-c2cccc(-c3cn(C(=O)N4COCC4(C)C)cn3)c2)c1 [Compound 236, (4,4-dimethyloxazolidin-3-yl)(4-(3′-methoxybiphenyl-3-yl)-1H-imidazol-1-yl)methanone] | –
17 | 99 % of control | 22.4 % of control | 39.5 % of control | COc1cccc(-c2cccc(-c3cn(C(=O)N(C)C4CCCCC4)cn3)c2)c1 [Compound 240, N-cyclohexyl-4-(3′-methoxybiphenyl-3-yl)-N-methyl-1H-imidazole-1-carboxamide] | –
